Measurements reported in patent publication US20140274688A1, “MOLECULES HAVING CERTAIN PESTICIDAL UTILITIES, AND INTERMEDIATES, COMPOSITIONS, AND PROCESSES RELATED THERETO” (DOW AGROSCIENCES LLC, priority 2013, published 2014).

Tests used:
[1] = test system: Beet Armyworm (Spodoptera exigua) ("BAW"); test: Bioassay on Beet Armyworm (BAW), 128-well diet tray assay, percent mortality; type: in vivo; settings: for BAW rating (percent mortality class): Beet Armyworm, 128-well diet tray assay
Source text: (§1) Bioassays on Beet Armyworm (Spodoptera exigua) (“BAW”) and Cabbage Looper (Trichoplusia ni) (“CL”)
(§2) BAW has few effective parasites, diseases, or predators to lower its population. BAW infests many weeds, trees, grasses, legumes, and field crops. In various places, it is of economic concern upon asparagus, cotton, corn, soybeans, tobacco, alfalfa, sugar beets, peppers, tomatoes, potatoes, onions, peas, sunflowers, and citrus, among other plants. The Cabbage Looper is a member of the moth family Noctuidae. It is found throughout the world. It is attacks cabbage, cauliflower, broccoli, Brussel sprouts, tomatoes, cucumbers, potatoes, kale, turnips, mustard, peppers, eggplant, watermelons, melons, squash, cantaloupe, peas, beans, collards, lettuce, spinach, celery, parsley, beets, peas, alfalfa, soybeans, and cotton. This species is very destructive to plants due to its voracious consumption of leaves. In the case of cabbage, however, they feed not only on the wrapper leaves, but also may bore into the developing head. The larvae consume three times their weight in plant material daily. The feeding sites are marked by large accumulations of sticky, wet fecal material.
(§3) Consequently, because of the above factors control of these pests is important.
(§4) Certain molecules disclosed in this document were tested against BAW and CEW using procedures described in the following examples. In the reporting of the results, the “BAW & CL Rating Table” was used (See Table Section).
(§5) Trays were covered with a clear self-adhesive cover and held at 25° C., 14:10 light-dark for five to seven days. Percent mortality was recorded for the larvae in each well; activity in the eight wells was then averaged. The results are indicated in the table entitled “Table ABC: Biological Results” (See Table Section).

[2] = test system: Cabbage Looper (Trichoplusia ni) ("CL"); test: Bioassay on Cabbage Looper (CL), 128-well diet tray assay, percent mortality; type: in vivo; settings: for CL rating (percent mortality class): Cabbage Looper, 128-well diet tray assay; for pest or weed control at 50 µg/cm2: Trichoplusia ni, read-out: CL
Source text: as §1, §2, §3, §4
Bioassays on Cabbage Looper in CL
as §5

Compound | BAW rating (percent mortality class) [1] | CL rating (percent mortality class) [2] | pest or weed control at 50 µg/cm2 [2] | pest or weed control at 50 µg/cm2 ([1]; Spodoptera exigua, read-out: BAW)
CC(C)c1ccccc1N1C(=O)CS/C1=N\C(=O)NCCc1ccc(-c2ncn(-c3ccc(OC(F)(F)F)cc3)n2)cc1 [F1, (Z)-1-(3-(2-isopropylphenyl)-4-oxothiazolidin-2-ylidene)-3-(4-(1-(4-(trifluoromethoxy)phenyl)-1H-1,2,4-triazol-3-yl)phenethyl)urea] | A (50-100) | A (50-100) |  | 
CC(Cc1ccc(-c2ncn(-c3ccc(OC(F)(F)F)cc3)n2)cc1)NC(=O)NC(=S)Nc1ccccc1C(C)C (stereo not shown) [F4, N-[2-(propan-2-yl)phenyl]-N′-[1-(4-{1-[4-(trifluoromethoxy)phenyl]-1H-1,2,4-triazol-3-yl}phenyl)propan-2-yl]dicarbonimidothioic diamide] | A (50-100) | A (50-100) |  | 
Cc1ccc(C(C)C)c(N2C(=O)CS/C2=N\C(=O)NC(C)Cc2ccc(-c3ncn(-c4ccc(OC(F)(F)F)cc4)n3)cc2)c1 (stereo not shown) [F8, (Z)-1-(3-(2-isopropyl-5-methylphenyl)-4-oxothiazolidin-2-ylidene)-3-(1-(4-(1-(4-(trifluoromethoxy)phenyl)-1H-1,2,4-triazol-3-yl)phenyl)propan-2-yl)urea] | A (50-100) | A (50-100) |  | 
CC(C)c1ccccc1NC(=S)NC(=O)N/C=C/c1ccc(-c2ncn(-c3ccc(OC(F)(F)F)cc3)n2)cc1 [F11, N-[2-(propan-2-yl)phenyl]-N′-[(E)-2-(4-{1-[4-(trifluoromethoxy)phenyl]-1H-1,2,4-triazol-3-yl}phenyl)ethenyl]dicarbonimidothioic diamide] | A (50-100) | A (50-100) |  | 
CC(C)c1ccccc1N1C(=O)CS/C1=N\C(=O)N/C=C/c1ccc(-c2ncn(-c3ccc(OC(F)(F)F)cc3)n2)cc1 [F12] | A (50-100) | A (50-100) |  | 
C/C(=C\NC(=O)/N=C1\SCC(=O)N1c1ccccc1C(C)C)c1ccc(-c2ncn(-c3ccc(OC(F)(F)F)cc3)n2)cc1 [F13] | A (50-100) | A (50-100) |  | 
CC(C)c1ccccc1NC(=S)NC(=O)NCc1ccc(-c2ncn(-c3ccc(OC(F)(F)C(F)(F)F)cc3)n2)cc1 [F15, N-(4-{1-[4-(pentafluoroethoxy)phenyl]-1H-1,2,4-triazol-3-yl}benzyl)-N′-[2-(propan-2-yl)phenyl]dicarbonimidothioic diamide] | A (50-100) | A (50-100) |  | 
Cc1ccc(C(C)C)c(NC(=S)NC(=O)NCc2ccc(-c3ncn(-c4ccc(OC(F)(F)C(F)(F)F)cc4)n3)cc2)c1 [F16, N-[5-methyl-2-(propan-2-yl)phenyl]-N′-(4-{1-[4-(pentafluoroethoxy)phenyl]-1H-1,2,4-triazol-3-yl}benzyl)dicarbonimidothioic diamide] | A (50-100) | A (50-100) |  | 
CC(C)c1ccccc1N1C(=O)CS/C1=N\C(=O)NCc1ccc(-c2ncn(-c3ccc(OC(F)(F)F)cc3)n2)cc1 [F17, (Z)-1-(3-(2-isopropylphenyl)-4-oxothiazolidin-2-ylidene)-3-(4-(1-(4-(trifluoromethoxy)phenyl)-1H-1,2,4-triazol-3-yl)benzyl)urea] | A (50-100) | A (50-100) |  | 
CC(C)c1ccccc1N1C(=O)CS/C1=N\C(=O)NCc1ccc(-c2ncn(-c3ccc(OC(F)(F)C(F)(F)F)cc3)n2)cc1 [F18, (Z)-1-(3-(2-isopropylphenyl)-4-oxothiazolidin-2-ylidene)-3-(4-(1-(4-(perfluoroethoxy)phenyl)-1H-1,2,4-triazol-3-yl)benzyl)urea] | A (50-100) | A (50-100) |  | 
Cc1ccc(C(C)C)c(N2C(=O)CS/C2=N\C(=O)NCc2ccc(-c3ncn(-c4ccc(OC(F)(F)C(F)(F)F)cc4)n3)cc2)c1 [F19, (Z)-1-(3-(2-isopropyl-5-methylphenyl)-4-oxothiazolidin-2-ylidene)-3-(4-(1-(4-(perfluoroethoxy)phenyl)-1H-1,2,4-triazol-3-yl)benzyl)urea] | A (50-100) | A (50-100) |  | 
CC(C)c1ccccc1NC(=S)NC(=O)NC1CC1c1ccc(-c2ncn(-c3ccc(OC(F)(F)F)cc3)n2)cc1 (stereo not shown) [F22, N-[2-(propan-2-yl)phenyl]-N′-[2-(4-{1-[4-(trifluoromethoxy)phenyl]-1H-1,2,4-triazol-3-yl}phenyl)cyclopropyl]dicarbonimidothioic diamide] | A (50-100) | A (50-100) |  | 
CCCc1ccccc1NC(=S)NC(=O)NC1CC1c1ccc(-c2ncn(-c3ccc(OC(F)(F)F)cc3)n2)cc1 (stereo not shown) [F23] | A (50-100) | A (50-100) |  | 
CCc1cccc(C)c1NC(=S)NC(=O)NC1CC1c1ccc(-c2ncn(-c3ccc(OC(F)(F)F)cc3)n2)cc1 (stereo not shown) [F24, N-(2-ethyl-6-methylphenyl)-N′-[2-(4-{1-[4-(trifluoromethoxy)phenyl]-1H-1,2,4-triazol-3-yl}phenyl)cyclopropyl]dicarbonimidothioic diamide] | A (50-100) | A (50-100) |  | 
Cc1cccc(C)c1NC(=S)NC(=O)NC1CC1c1ccc(-c2ncn(-c3ccc(OC(F)(F)F)cc3)n2)cc1 (stereo not shown) [F25] | A (50-100) | A (50-100) |  | 
COc1ccc(NC(=S)NC(=O)NC2CC2c2ccc(-c3ncn(-c4ccc(OC(F)(F)F)cc4)n3)cc2)c(C)c1 (stereo not shown) [F26] | A (50-100) | A (50-100) |  | 
Cc1ccc(C(C)C)c(NC(=S)NC(=O)NCc2ccc(-c3ncn(-c4ccc(OC(F)(F)F)cc4)n3)cc2)c1 [F35, N-[5-methyl-2-(propan-2-yl)phenyl]-N′-(4-{1-[4-(trifluoromethoxy)phenyl]-1H-1,2,4-triazol-3-yl}benzyl)dicarbonimidothioic diamide] | A (50-100) |  |  | 
Cc1ccc(-n2c(C)cs/c2=N\C(=O)NCc2ccc(-c3ncn(-c4ccc(OC(F)(F)F)cc4)n3)cc2)c(C(C)C)c1 [P20, (Z)-1-(3-(2-isopropyl-4-methylphenyl)-4-methylthiazol-2(3H)-ylidene)-3-(4-(1-(4-(trifluoromethoxy)phenyl)-1H-1,2,4-triazol-3-yl)benzyl)urea] |  |  | 50 to 100% | 
Cc1ccc(C(C)C)c(N2C(=O)CS/C2=N\C(=O)NCCc2cccc(-c3ncn(-c4ccc(OC(F)(F)F)cc4)n3)c2)c1 [P81, (Z)-1-(3-(2-isopropyl-5-methylphenyl)-4-oxothiazolidin-2-ylidene)-3-(3-(1-(4-(trifluoromethoxy)phenyl)-1H-1,2,4-triazol-3-yl)phenethyl)urea] |  |  | 50 to 100% | 
Cc1cccc(C)c1N1C(=O)CS/C1=N\C(=O)NCCCCc1ccc(-c2ncn(-c3ccc(OC(F)(F)F)cc3)n2)cc1 [P152, (Z)-1-(3-(2,6-dimethylphenyl)-4-oxothiazolidin-2-ylidene)-3-(4-(4-(1-(4-(trifluoromethoxy)phenyl)-1H-1,2,4-triazol-3-yl)phenyl)butyl)urea] |  |  | 50 to 100% | 
CCc1cccc(C)c1N1C(=O)CS/C1=N\C(=O)NCCCCc1ccc(-c2ncn(-c3ccc(OC(F)(F)F)cc3)n2)cc1 [P153, (Z)-1-(3-(2-ethyl-6-methylphenyl)-4-oxothiazolidin-2-ylidene)-3-(4-(4-(1-(4-(trifluoromethoxy)phenyl)-1H-1,2,4-triazol-3-yl)phenyl)butyl)urea] |  |  | 50 to 100% | 
Cc1ccccc1N1C(=O)CS/C1=N\C(=O)NCCCCc1cccc(-c2ncn(-c3ccc(OC(F)(F)F)cc3)n2)c1 [P170, (Z)-1-(4-oxo-3-(o-tolyl)thiazolidin-2-ylidene)-3-(4-(3-(1-(4-(trifluoromethoxy)phenyl)-1H-1,2,4-triazol-3-yl)phenyl)butyl)urea] |  |  | 50 to 100% | 
Cc1ccc(N2C(=O)CS/C2=N\C(=O)NCCCCc2cccc(-c3ncn(-c4ccc(OC(F)(F)F)cc4)n3)c2)c(C(C)C)c1 [P180, (Z)-1-(3-(2-isopropyl-4-methylphenyl)-4-oxothiazolidin-2-ylidene)-3-(4-(3-(1-(4-(trifluoromethoxy)phenyl)-1H-1,2,4-triazol-3-yl)phenyl)butyl)urea] |  |  | 50 to 100% | 
CCC(CNC(=O)/N=C1\SCC(=O)N1c1ccc(F)cc1C(C)C)c1ccc(-c2ncn(-c3ccc(OC(F)(F)F)cc3)n2)cc1 (stereo not shown) [P1163, (Z)-1-(3-(4-fluoro-2-isopropylphenyl)-4-oxothiazolidin-2-ylidene)-3-(2-(4-(1-(4-(trifluoromethoxy)phenyl)-1H-1,2,4-triazol-3-yl)phenyl)butyl)urea] |  |  |  | 50 to 100%
